Patent US20260217767A1, “NOVEL A4B7 THIOETHER PEPTIDE DIMER ANTAGONISTS” (Protagonist Therapeutics, Inc., priority 2014, published 2026)
*1 amine or outer side, *2 acyl side, *3 side chain or, on linkers, in order; H or OH if unused. Where a SMILES comes first, the peptide text is derived from it. Bridges are numbered along the chain shown (N, C = ends). Roman numbers before positions name the chains, in order. [ ]: non-standard residue; d: D form. Diglycolyl = O=C(COCC(=O)[*:2])[*:1]; NMeR = CN[C@@H](CCCNC(=N)N)C(=O)O; X1 = O=C(c1ccccc1C[*:2])[*:1]; Pen = CC(C)(S)[C@H](N)C(=O)O

target: T1, rh integrin α4β7 (Homo sapiens, UniProt P13612+P26010); experiment: α4β7-MAdCAM Competition ELISA; format: binding; conditions: thioether monomer peptides, Table 6; read-out: ELISA A4B7
T1 construct: purchased R&D Systems 5397-A30
T1 sequence (P13612 34-977 limits assumed): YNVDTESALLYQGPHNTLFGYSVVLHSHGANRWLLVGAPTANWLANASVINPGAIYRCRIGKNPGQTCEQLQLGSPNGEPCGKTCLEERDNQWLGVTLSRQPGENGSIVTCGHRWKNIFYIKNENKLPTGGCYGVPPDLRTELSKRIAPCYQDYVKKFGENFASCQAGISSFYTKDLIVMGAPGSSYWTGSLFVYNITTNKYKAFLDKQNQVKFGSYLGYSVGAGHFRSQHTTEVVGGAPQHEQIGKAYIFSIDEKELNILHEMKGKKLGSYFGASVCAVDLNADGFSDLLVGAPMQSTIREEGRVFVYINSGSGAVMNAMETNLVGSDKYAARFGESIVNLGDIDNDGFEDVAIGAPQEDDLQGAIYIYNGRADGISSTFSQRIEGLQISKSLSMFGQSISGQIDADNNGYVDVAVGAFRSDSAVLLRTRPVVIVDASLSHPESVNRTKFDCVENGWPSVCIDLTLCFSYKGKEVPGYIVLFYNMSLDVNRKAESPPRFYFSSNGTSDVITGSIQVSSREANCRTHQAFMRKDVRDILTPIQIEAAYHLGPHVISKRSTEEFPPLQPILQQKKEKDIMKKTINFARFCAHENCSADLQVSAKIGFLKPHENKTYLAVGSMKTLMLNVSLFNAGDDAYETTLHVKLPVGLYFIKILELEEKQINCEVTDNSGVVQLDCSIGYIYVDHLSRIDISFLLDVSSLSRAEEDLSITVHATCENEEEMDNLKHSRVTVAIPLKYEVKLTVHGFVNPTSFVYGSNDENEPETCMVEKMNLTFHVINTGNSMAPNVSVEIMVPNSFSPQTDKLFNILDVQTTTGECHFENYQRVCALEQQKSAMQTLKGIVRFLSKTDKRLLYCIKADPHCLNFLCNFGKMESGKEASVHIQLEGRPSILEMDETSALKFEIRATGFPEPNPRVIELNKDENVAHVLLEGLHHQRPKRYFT
T1 sequence (P26010 20-723 limits assumed): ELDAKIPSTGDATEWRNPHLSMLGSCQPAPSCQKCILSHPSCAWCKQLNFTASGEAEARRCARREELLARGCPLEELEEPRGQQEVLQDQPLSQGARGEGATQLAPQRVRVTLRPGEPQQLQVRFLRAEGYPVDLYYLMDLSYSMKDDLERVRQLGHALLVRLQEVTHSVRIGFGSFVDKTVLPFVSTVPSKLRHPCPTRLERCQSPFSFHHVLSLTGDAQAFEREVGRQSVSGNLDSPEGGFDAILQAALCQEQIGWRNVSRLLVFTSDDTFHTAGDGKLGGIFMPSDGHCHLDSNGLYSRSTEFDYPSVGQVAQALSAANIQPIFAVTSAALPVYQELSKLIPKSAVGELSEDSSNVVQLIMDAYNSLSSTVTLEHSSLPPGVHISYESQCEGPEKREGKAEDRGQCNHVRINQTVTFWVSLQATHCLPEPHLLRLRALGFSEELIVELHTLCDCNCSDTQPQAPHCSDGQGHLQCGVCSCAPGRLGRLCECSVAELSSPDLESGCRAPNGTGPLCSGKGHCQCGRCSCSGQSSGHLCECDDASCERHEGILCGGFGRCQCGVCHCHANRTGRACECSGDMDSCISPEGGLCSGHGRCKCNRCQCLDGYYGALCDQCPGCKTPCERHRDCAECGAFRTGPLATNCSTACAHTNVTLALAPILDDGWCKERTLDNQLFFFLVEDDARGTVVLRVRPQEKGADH
In short: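 Recombinant human α4β7 captured on nickel-coated plates, then incubated 1 h at room temperature with serially diluted peptides (final top 10 μM) and 10 nM final MAdCAM-1 in Tris pH 7.6 buffer with 1 mM MnCl2 or MgCl2. Bound MAdCAM-1 detected with anti-human IgG1-HRP and TMB, absorbance at 450 nm.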

Question: How did the IC50 turn out when `CC(C)C[C@@H]1NC(=O)[C@H]([C@@H](C)O)NC(=O)[C@H](CC(=O)O)NC(=O)[C@H](CO)NC(=O)[C@H](CCCNC(=N)N)N(C)C(=O)c2ccccc2CSC(C)(C)[C@@H](C(=O)N[C@@H](Cc2c[nH]c3ccccc23)C(=O)N[C@H](CCC(=O)O)C(=O)N[C@@H](CO)C(N)=O)NC1=O` [compound 100] (HELM PEPTIDE1{[meR].S.D.T.L.[Pen].W.[dE].S.[am]}|CHEM1{[O=C(c1ccccc1C[*:2])[*:1]]}$PEPTIDE1,CHEM1,1:R1-1:R1|PEPTIDE1,CHEM1,6:R3-1:R2$$$V2.0) was run?
Answer: < 25 nM

Question: Which IC50 does the source give for `CC(C)C[C@@H]1NC(=O)[C@H]([C@@H](C)O)NC(=O)[C@H](CC(=O)O)NC(=O)[C@H](CO)NC(=O)[C@H](CCCNC(=N)N)N(C)C(=O)c2ccccc2CSC(C)(C)[C@@H](C(=O)N[C@@H](Cc2c[nH]c3ccccc23)C(=O)N[C@H](CCC(=O)O)C(=O)N[C@@H](Cc2c[nH]cn2)C(N)=O)NC1=O` [compound 102] (HELM PEPTIDE1{[meR].S.D.T.L.[Pen].W.[dE].H.[am]}|CHEM1{[O=C(c1ccccc1C[*:2])[*:1]]}$PEPTIDE1,CHEM1,1:R1-1:R1|PEPTIDE1,CHEM1,6:R3-1:R2$$$V2.0) here?
Answer: < 25 nM

Question: With `CC(C)C[C@@H]1NC(=O)[C@H]([C@@H](C)O)NC(=O)[C@H](CC(=O)O)NC(=O)[C@H](CO)NC(=O)[C@H](CCCNC(=N)N)N(C)C(=O)c2ccccc2CSC(C)(C)[C@@H](C(=O)N[C@@H](Cc2c[nH]c3ccccc23)C(=O)N[C@H](CCC(=O)O)C(=O)N[C@@H](CCN)C(N)=O)NC1=O` [compound 95] (HELM PEPTIDE1{[meR].S.D.T.L.[Pen].W.[dE].[Dab].[am]}|CHEM1{[O=C(c1ccccc1C[*:2])[*:1]]}$PEPTIDE1,CHEM1,1:R1-1:R1|PEPTIDE1,CHEM1,6:R3-1:R2$$$V2.0) as the molecule, how does the IC50 read?
Answer: < 25 nM

Question: How did the IC50 turn out when `CC(C)C[C@@H]1NC(=O)[C@H]([C@@H](C)O)NC(=O)[C@H](CC(=O)O)NC(=O)[C@H](CO)NC(=O)[C@H](CCCNC(=N)N)N(C)C(=O)c2ccccc2CSC(C)(C)[C@@H](C(=O)N[C@@H](Cc2c[nH]c3ccccc23)C(=O)N[C@H](CCC(=O)O)C(=O)N[C@@H](Cc2ccccc2)C(N)=O)NC1=O` [compound 101] (HELM PEPTIDE1{[meR].S.D.T.L.[Pen].W.[dE].F.[am]}|CHEM1{[O=C(c1ccccc1C[*:2])[*:1]]}$PEPTIDE1,CHEM1,1:R1-1:R1|PEPTIDE1,CHEM1,6:R3-1:R2$$$V2.0) was run?
Answer: < 25 nM

Question: How did the IC50 turn out when `CC(C)C[C@@H]1NC(=O)[C@H]([C@@H](C)O)NC(=O)[C@H](CC(=O)O)NC(=O)[C@H](CO)NC(=O)[C@H](CCCNC(=N)N)N(C)C(=O)c2ccccc2CSC(C)(C)[C@@H](C(=O)N[C@@H](Cc2c[nH]c3ccccc23)C(=O)N[C@H](CCC(=O)O)C(=O)N[C@@H](Cc2ccc(O)cc2)C(N)=O)NC1=O` [compound 104] (HELM PEPTIDE1{[meR].S.D.T.L.[Pen].W.[dE].Y.[am]}|CHEM1{[O=C(c1ccccc1C[*:2])[*:1]]}$PEPTIDE1,CHEM1,1:R1-1:R1|PEPTIDE1,CHEM1,6:R3-1:R2$$$V2.0) was run?
Answer: < 25 nM

same assay, conditions: thioether peptide dimers, Table 7; read-out: ELISA A4B7

Question: With `CC(C)C[C@@H]1NC(=O)[C@H]([C@@H](C)O)NC(=O)[C@H](CC(=O)O)NC(=O)[C@H](CO)NC(=O)[C@H](CCCNC(=N)N)N(C)C(=O)c2ccccc2CSC(C)(C)[C@@H](C(=O)N[C@@H](Cc2ccccc2)C(=O)N[C@H](CCC(=O)O)C(=O)N[C@H](CCCCNC(=O)COCC(=O)NCCCC[C@@H](NC(=O)[C@@H](CCC(=O)O)NC(=O)[C@H](Cc2ccccc2)NC(=O)[C@H]2NC(=O)[C@H](CC(C)C)NC(=O)[C@H]([C@@H](C)O)NC(=O)[C@H](CC(=O)O)NC(=O)[C@H](CO)NC(=O)[C@H](CCCNC(=N)N)N(C)C(=O)c3ccccc3CSC2(C)C)C(=O)O)C(=O)O)NC1=O` [compound 204] (I: [NMeR]SDTL[Pen]F[dE][dK]-OH / II: [NMeR]SDTL[Pen]F[dE][dK]-OH; linker I:9-II:9 via Diglycolyl; linker I:N-I:6, II:N-II:6 via X1) as the molecule, how does the IC50 read?
Answer: < 25 nM
